The results in this text go back to patent publication US8987171B2, “Selective herbicides with activator adjuvants” (W. Neudorff GmbH KG, priority 2010, dated 2015).

Where two headings read alike, the source gives them in different places.

In data set [1] the test system is park lawn. The data set can be described thus: Field English daisy and turf test, iron chelates with Sylgard 309 (Example 8): grass damage. The note with it: sprayed twice at 200 ml/m^2, 5 days after first spraying, visual rating 0-100%. It counts as in vivo. The procedure:
(§1) The following non-limiting examples serve to further describe the invention. Unless otherwise specified, all of the iron solutions were made using the same molar concentration of iron ion as chelating agent. Samples were prepared by diluting a metal chelate, such as iron GLDA (Dissolvine GL-Fe-5), iron EDDS (Enviomet C320), or iron HEDTA (Neu 1173H), to the desired level of iron as specified using simple stirring. Neu 1173H contains the stabilizer sodium citrate at 1.5% prior to dilution. Dilutions of Neu1173H to the level of 0.25% Fe, incorporates 0.08% sodium citrate into the spray solutions. Adjuvants (Sylgard® 309, Biosoft®D-40, Tween® 20), were then diluted and added to the diluted metal chelate. Samples were usually prepared within 48 hours of spraying. All of the outside tests were done on areas of mixed grass and white clover that were at least 2 months old. For the greenhouse tests, white clover and black medic were grown in a commercial greenhouse mix using supplemental lighting and heating. Each plant was grown in a 2¼ inch pot to a minimum diameter of 15-20 cm. Perennial ryegrass was grown in 2¼ inch pots in the same greenhouse conditions as above and they are at least 4 weeks old at the time of application. […]
(§2) All plant damage was visually assessed using a percentage rating scale from 0 (no injury) to 100% (death). […]

The next data set deals with black medic. The data set can be described thus: Greenhouse black medic and turf test, iron chelates with Sylgard 309 (Example 2): black medic damage. In kind it is in vivo. The conditions noted are these: sprayed twice at 200 ml/m^2, 7 days after first spraying, visual rating 0-100%. The procedure: as §1, §2
Data set [2] relates to perennial ryegrass. The data set is described as follows: Greenhouse white clover and turf test, iron chelates with Tween 20 (Example 5): grass damage. It counts as in vivo. The note with it: sprayed twice at 200 ml/m^2, one day after first spraying, visual rating 0-100%. The procedure: as §1, §2
The subject of data set [3] is white clover. The data set is described as follows: Field white clover and turf test, iron chelates with Bio-Soft D-40 (Example 4): white clover damage. In kind it is in vivo, white clover (Trifolium repens). The conditions noted are these: sprayed twice at 200 ml/m^2, 14 days after second spraying, visual rating 0-100%. Here is the method: as §1, §2
For data set [4], the system named is English daisy. The data set can be described thus: Field English daisy and turf test, iron chelates with Sylgard 309 (Example 8): English daisy damage. In kind it is in vivo, English daisy (Bellis perennis). The conditions noted are these: sprayed twice at 200 ml/m^2, 5 days after first spraying, visual rating 0-100%. The procedure: as §1, §2
Data set [5] has as its system white clover. The data set is described as follows: Greenhouse white clover and turf test, iron chelates with Sylgard 309 (Example 1): white clover damage. The conditions noted are these: sprayed twice at 200 ml/m^2, 7 days after second spraying, visual rating 0-100%. It counts as in vivo, white clover (Trifolium repens). The procedure:
as §1, §2

For data set [6], the system named is park lawn. The data set can be described thus: Field white clover and turf test, iron chelates with Bio-Soft D-40 (Example 4): grass damage. It counts as in vivo. The conditions noted are these: sprayed twice at 200 ml/m^2, 14 days after second spraying, visual rating 0-100%. Here is the method:
as §1, §2

The test system of data set [7] is perennial ryegrass. The data set can be described thus: Greenhouse black medic and turf test, iron chelates with Sylgard 309 (Example 2): grass damage. In kind it is in vivo. The note with it: sprayed twice at 200 ml/m^2, 7 days after first spraying, visual rating 0-100%. The procedure:
as §1, §2

Data set [8] deals with white clover. The data set can be described thus: Greenhouse white clover and turf test, iron chelates with Bio-Soft D-40 (Example 3): white clover damage. It counts as in vivo, white clover (Trifolium repens). The note with it: sprayed twice at 200 ml/m^2, one day after first spraying, visual rating 0-100%. Here is the method:
as §1, §2

The subject of data set [9] is perennial ryegrass. The data set can be described thus: Greenhouse white clover and turf test, iron chelates with Sylgard 309 (Example 1): grass damage. It counts as in vivo. The conditions noted are these: sprayed twice at 200 ml/m^2, 7 days after second spraying, visual rating 0 (no injury) to 100% (death). Here is the method: as §1, §2
In data set [10] the test system is perennial ryegrass. It counts as in vivo. The conditions noted are these: greenhouse, sprayed twice at 200 ml/m^2, one day after first spraying, visual rating 0-100%. Here is the method: as §1, §2
The test system of data set [11] is white clover. The data set can be described thus: Greenhouse white clover and turf test, iron chelates with Tween 20 (Example 5): white clover damage. It counts as in vivo, white clover (Trifolium repens). The conditions noted are these: sprayed twice at 200 ml/m^2, one day after first spraying, visual rating 0-100%. The procedure:
as §1, §2

The next data set deals with dandelion. The data set can be described thus: Greenhouse dandelion and turf test, iron chelates with Sylgard 309 (Example 7): dandelion damage. The note with it: sprayed twice at 200 ml/m^2, 7 days after first spraying, visual rating 0-100%. In kind it is in vivo, dandelion (Taraxacum officinale). The procedure:
as §1, §2

The subject of data set [12] is perennial ryegrass. The data set is described as follows: Greenhouse dandelion and turf test, iron chelates with Sylgard 309 (Example 7): grass damage. It counts as in vivo. The conditions noted are these: sprayed twice at 200 ml/m^2, 7 days after first spraying, visual rating 0-100%. Here is the method:
as §1, §2

Data set [13] relates to English daisy. The data set is described as follows: Field English daisy and turf test, iron chelates with Sylgard 309 and Bio-Soft D-40 (Example 9): English daisy damage. It counts as in vivo, English daisy (Bellis perennis). The note with it: sprayed twice at 100 ml/m^2, 7 days after first spraying, visual rating 0-100%. The procedure:
as §1, §2

Data set [14] concerns park lawn. The data set is described as follows: Field English daisy and turf test, iron chelates with Sylgard 309 and Bio-Soft D-40 (Example 9): grass damage. It counts as in vivo. The conditions noted are these: sprayed twice at 100 ml/m^2, 7 days after first spraying, visual rating 0-100%. Here is the method:
as §1, §2

The subject of data set [15] is white clover. The data set is described as follows: Greenhouse white clover and turf test, iron chelates with Sylgard 309 (Example 6): white clover damage. In kind it is in vivo, white clover (Trifolium repens). The conditions noted are these: sprayed twice at 200 ml/m^2, 14 days after second spraying, visual rating 0-100%. The procedure:
as §1, §2

Data set [16] relates to perennial ryegrass. The data set can be described thus: Greenhouse white clover and turf test, iron chelates with Sylgard 309 (Example 6): grass damage. In kind it is in vivo. The note with it: sprayed twice at 200 ml/m^2, 14 days after second spraying, visual rating 0-100%. Here is the method:
as §1, §2

On to “iron ethylenediaminedisuccinate [FeEDDS 2.49% a.i. (0.4% Fe)]”, for which the “Grass Damage (%)” value was 4% in the data set with park lawn [1]; 0% in the data set on perennial ryegrass [2]; 1% in the data set with park lawn [6]; 2% in the data set on perennial ryegrass [7]; 3% in the data set with perennial ryegrass [9]; 1% in the data set with perennial ryegrass [10]. Further, in the data set on black medic, the “Black Medic Damage (%)” value was 28%. Further, the “White Clover Damage (%)” value in the data set with white clover [3] is given as 38%; in the data set on white clover [5], 27%; with white clover [8] it was 15%; in the data set on white clover [11], 18%. Moreover, the “English daisy Damage (%)” value with English daisy [4] was determined as 39%.
Consider “iron glutamicaciddiacetic acid [FeGLDA 2.28% a.i. (0.4% Fe)]”, for which the “Dandelion Damage (%)” value with dandelion turned out to be 38%. Besides, the “White Clover Damage (%)” value in the data set on white clover [5] amounted to 7%; in the data set with white clover [8] it was 8%. Besides, the “Grass Damage (%)” value in the data set on perennial ryegrass [12] was found to be 6%; in the data set on perennial ryegrass [9] it was 8%; with perennial ryegrass [10] it was 0%.
For “iron hydroxyethylenediaminetriacetic acid [FeHEDTA 1.5% a.i (0.25% Fe)]”, the “Black Medic Damage (%)” value with black medic was 54%. Further, the “Grass Damage (%)” value with perennial ryegrass [7] was 3%; in the data set on park lawn [14], 2%; with perennial ryegrass [16], 2%. Besides, the “English daisy Damage (%)” value in the data set with English daisy [13] was determined as 81%. Moreover, the “White Clover Damage (%)” value in the data set on white clover [15] amounted to 46%.
